Molecules are shown by their SMILES.

The experiment concerns the target Cathepsin K (Homo sapiens) (UniProt P43235). In words: Inhibition of human cathepsin K using Z-Leu-Arg-AMC fluorogenic substrate incubated for 60 mins.
`CN(C(=O)OC(C)(C)C)N(C#N)CC(=O)N1CCOCC1`: the Ki (usually a dissociation constant, usually derived from enzyme kinetics or from competition with a known ligand) was determined as 31000 pM.
As for `CC(C)(C)OC(=O)NN(C#N)CC(=O)N(Cc1ccccc1)Cc1ccccc1`, the figure is 1.43 pM; as for `CN(Cc1ccccc1)C(=O)CN(C#N)NC(=O)OC(C)(C)C`, 4.2 pM; as for `CC(C)(C)OC(=O)NN(C#N)CC(=O)N1CCOCC1`, 11 pM.

The values are drawn from BindingDB's records for doi:10.1021/ml500238q (University of Bonn, 2014).
